According to PubChem BioAssay (NCI):
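How tested: cells in 96-well plates exposed to compound for 48 hours at five concentrations. TGI marks complete inhibition of growth.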

test system: SF-268 CNS; experiment: NCI tumour cell line growth inhibition, 48 h

SMILES | TGI [µM]
CN=C1CC2c3cc(OC)c(OC)cc3CCN2C2=C1C(=O)CC(C)(C)C2 (stereo not given) | > 100
Cn1c(=O)n(C2(C)C[Se]C2)c2ccccc21 | > 100
COC(=O)C(Cc1nc2ccc(Cl)cc2[nH]c1=O)/C(=N\N)C(=O)Nc1cc(C)c(Cl)cc1S(=O)(=O)O (stereo not given) | > 100

test system: SW-620 colon; experiment: NCI tumour cell line growth inhibition, 48 h

SMILES | TGI [µM]
O=C1/C(=C/c2ccccc2S)N=C(c2ccccc2)N1c1nc2c(Cl)cc(Cl)cc2s1 | > 100
CCCCCCc1cc2cc(C(=O)Nc3ccccc3)c(=N)oc2cc1O | > 100
Cc1nn(-c2ccccc2)c2c1C(c1ccc(Cl)cc1)NC(=S)N2 (stereo not given) | 71.1
CCOC1OC(=O)c2cc3ccc4c(c3c(-c3ccc5c(c3)OCO5)c21)OCO4 (stereo not given) | > 100
CN=C1CC2c3cc(OC)c(OC)cc3CCN2C2=C1C(=O)CC(C)(C)C2 (stereo not given) | > 100
Cn1c(=O)n(C2(C)C[Se]C2)c2ccccc21 | > 100

test system: MDA-MB-435; experiment: NCI tumour cell line growth inhibition, 48 h

SMILES | TGI [µM]
O=C1/C(=C/c2ccccc2S)N=C(c2ccccc2)N1c1nc2c(Cl)cc(Cl)cc2s1 | 48.2
CCCCCCc1cc2cc(C(=O)Nc3ccccc3)c(=N)oc2cc1O | 14.1
Cc1nn(-c2ccccc2)c2c1C(c1ccc(Cl)cc1)NC(=S)N2 (stereo not given) | 47.4
CCOC1OC(=O)c2cc3ccc4c(c3c(-c3ccc5c(c3)OCO5)c21)OCO4 (stereo not given) | > 28

test system: M14 melanoma; experiment: NCI tumour cell line growth inhibition, 48 h

SMILES | TGI [µM]
O=C1/C(=C/c2ccccc2S)N=C(c2ccccc2)N1c1nc2c(Cl)cc(Cl)cc2s1 | 66.2
CCCCCCc1cc2cc(C(=O)Nc3ccccc3)c(=N)oc2cc1O | > 29.4
Cc1nn(-c2ccccc2)c2c1C(c1ccc(Cl)cc1)NC(=S)N2 (stereo not given) | > 100
CCOC1OC(=O)c2cc3ccc4c(c3c(-c3ccc5c(c3)OCO5)c21)OCO4 (stereo not given) | 79.3
Cn1c(=O)n(C2(C)C[Se]C2)c2ccccc21 | > 100
COC(=O)C(Cc1nc2ccc(Cl)cc2[nH]c1=O)/C(=N\N)C(=O)Nc1cc(C)c(Cl)cc1S(=O)(=O)O (stereo not given) | > 100

test system: DU-145 prostate; experiment: NCI tumour cell line growth inhibition, 48 h

SMILES | TGI [µM]
O=C1/C(=C/c2ccccc2S)N=C(c2ccccc2)N1c1nc2c(Cl)cc(Cl)cc2s1 | > 100
CCCCCCc1cc2cc(C(=O)Nc3ccccc3)c(=N)oc2cc1O | > 100
Cc1nn(-c2ccccc2)c2c1C(c1ccc(Cl)cc1)NC(=S)N2 (stereo not given) | > 100
CCOC1OC(=O)c2cc3ccc4c(c3c(-c3ccc5c(c3)OCO5)c21)OCO4 (stereo not given) | > 100

test system: U251 CNS; experiment: NCI tumour cell line growth inhibition, 48 h

SMILES | TGI [µM]
O=C1/C(=C/c2ccccc2S)N=C(c2ccccc2)N1c1nc2c(Cl)cc(Cl)cc2s1 | 54.2
CCCCCCc1cc2cc(C(=O)Nc3ccccc3)c(=N)oc2cc1O | > 33.6
Cc1nn(-c2ccccc2)c2c1C(c1ccc(Cl)cc1)NC(=S)N2 (stereo not given) | 48.1
CCOC1OC(=O)c2cc3ccc4c(c3c(-c3ccc5c(c3)OCO5)c21)OCO4 (stereo not given) | > 100
CN=C1CC2c3cc(OC)c(OC)cc3CCN2C2=C1C(=O)CC(C)(C)C2 (stereo not given) | > 100
Cn1c(=O)n(C2(C)C[Se]C2)c2ccccc21 | > 100
COC(=O)C(Cc1nc2ccc(Cl)cc2[nH]c1=O)/C(=N\N)C(=O)Nc1cc(C)c(Cl)cc1S(=O)(=O)O (stereo not given) | > 100

test system: COLO 205 colon; experiment: NCI tumour cell line growth inhibition, 48 h

SMILES | TGI [µM]
O=C1/C(=C/c2ccccc2S)N=C(c2ccccc2)N1c1nc2c(Cl)cc(Cl)cc2s1 | 54.8
CCCCCCc1cc2cc(C(=O)Nc3ccccc3)c(=N)oc2cc1O | > 100
Cc1nn(-c2ccccc2)c2c1C(c1ccc(Cl)cc1)NC(=S)N2 (stereo not given) | 31.2
CCOC1OC(=O)c2cc3ccc4c(c3c(-c3ccc5c(c3)OCO5)c21)OCO4 (stereo not given) | 5.16
CN=C1CC2c3cc(OC)c(OC)cc3CCN2C2=C1C(=O)CC(C)(C)C2 (stereo not given) | > 100
Cn1c(=O)n(C2(C)C[Se]C2)c2ccccc21 | > 100
COC(=O)C(Cc1nc2ccc(Cl)cc2[nH]c1=O)/C(=N\N)C(=O)Nc1cc(C)c(Cl)cc1S(=O)(=O)O (stereo not given) | > 100

test system: OVCAR-5 ovarian; experiment: NCI tumour cell line growth inhibition, 48 h

SMILES | TGI [µM]
O=C1/C(=C/c2ccccc2S)N=C(c2ccccc2)N1c1nc2c(Cl)cc(Cl)cc2s1 | 54.8
CCCCCCc1cc2cc(C(=O)Nc3ccccc3)c(=N)oc2cc1O | > 100
Cc1nn(-c2ccccc2)c2c1C(c1ccc(Cl)cc1)NC(=S)N2 (stereo not given) | 89.4
CCOC1OC(=O)c2cc3ccc4c(c3c(-c3ccc5c(c3)OCO5)c21)OCO4 (stereo not given) | > 100
CN=C1CC2c3cc(OC)c(OC)cc3CCN2C2=C1C(=O)CC(C)(C)C2 (stereo not given) | > 100
Cn1c(=O)n(C2(C)C[Se]C2)c2ccccc21 | > 100
COC(=O)C(Cc1nc2ccc(Cl)cc2[nH]c1=O)/C(=N\N)C(=O)Nc1cc(C)c(Cl)cc1S(=O)(=O)O (stereo not given) | > 100

test system: HS 578T breast; experiment: NCI tumour cell line growth inhibition, 48 h

SMILES | TGI [µM]
O=C1/C(=C/c2ccccc2S)N=C(c2ccccc2)N1c1nc2c(Cl)cc(Cl)cc2s1 | 75.8
CCCCCCc1cc2cc(C(=O)Nc3ccccc3)c(=N)oc2cc1O | 20
Cc1nn(-c2ccccc2)c2c1C(c1ccc(Cl)cc1)NC(=S)N2 (stereo not given) | > 100
CCOC1OC(=O)c2cc3ccc4c(c3c(-c3ccc5c(c3)OCO5)c21)OCO4 (stereo not given) | > 39.6

test system: HCT-15 colon; experiment: NCI tumour cell line growth inhibition, 48 h

SMILES | TGI [µM]
O=C1/C(=C/c2ccccc2S)N=C(c2ccccc2)N1c1nc2c(Cl)cc(Cl)cc2s1 | > 100
CCCCCCc1cc2cc(C(=O)Nc3ccccc3)c(=N)oc2cc1O | > 100
Cc1nn(-c2ccccc2)c2c1C(c1ccc(Cl)cc1)NC(=S)N2 (stereo not given) | 37.7
CCOC1OC(=O)c2cc3ccc4c(c3c(-c3ccc5c(c3)OCO5)c21)OCO4 (stereo not given) | > 100
Cn1c(=O)n(C2(C)C[Se]C2)c2ccccc21 | > 100
COC(=O)C(Cc1nc2ccc(Cl)cc2[nH]c1=O)/C(=N\N)C(=O)Nc1cc(C)c(Cl)cc1S(=O)(=O)O (stereo not given) | > 100

test system: NCI-H226 lung; experiment: NCI tumour cell line growth inhibition, 48 h

SMILES | TGI [µM]
CCCCCCc1cc2cc(C(=O)Nc3ccccc3)c(=N)oc2cc1O | > 100
Cc1nn(-c2ccccc2)c2c1C(c1ccc(Cl)cc1)NC(=S)N2 (stereo not given) | > 100
CCOC1OC(=O)c2cc3ccc4c(c3c(-c3ccc5c(c3)OCO5)c21)OCO4 (stereo not given) | > 74
CN=C1CC2c3cc(OC)c(OC)cc3CCN2C2=C1C(=O)CC(C)(C)C2 (stereo not given) | > 100
Cn1c(=O)n(C2(C)C[Se]C2)c2ccccc21 | > 100
COC(=O)C(Cc1nc2ccc(Cl)cc2[nH]c1=O)/C(=N\N)C(=O)Nc1cc(C)c(Cl)cc1S(=O)(=O)O (stereo not given) | > 100

test system: OVCAR-4 ovarian; experiment: NCI tumour cell line growth inhibition, 48 h

SMILES | TGI [µM]
O=C1/C(=C/c2ccccc2S)N=C(c2ccccc2)N1c1nc2c(Cl)cc(Cl)cc2s1 | 73.8
CCCCCCc1cc2cc(C(=O)Nc3ccccc3)c(=N)oc2cc1O | > 60.9
Cc1nn(-c2ccccc2)c2c1C(c1ccc(Cl)cc1)NC(=S)N2 (stereo not given) | > 100
CCOC1OC(=O)c2cc3ccc4c(c3c(-c3ccc5c(c3)OCO5)c21)OCO4 (stereo not given) | > 100
Cn1c(=O)n(C2(C)C[Se]C2)c2ccccc21 | > 100
COC(=O)C(Cc1nc2ccc(Cl)cc2[nH]c1=O)/C(=N\N)C(=O)Nc1cc(C)c(Cl)cc1S(=O)(=O)O (stereo not given) | > 100

test system: DMS 114 small cell lung; experiment: NCI tumour cell line growth inhibition, 48 h

SMILES | TGI [µM]
CN=C1CC2c3cc(OC)c(OC)cc3CCN2C2=C1C(=O)CC(C)(C)C2 (stereo not given) | > 100
COC(=O)C(Cc1nc2ccc(Cl)cc2[nH]c1=O)/C(=N\N)C(=O)Nc1cc(C)c(Cl)cc1S(=O)(=O)O (stereo not given) | > 100

test system: RPMI-8226 leukemia; experiment: NCI tumour cell line growth inhibition, 48 h

SMILES | TGI [µM]
O=C1/C(=C/c2ccccc2S)N=C(c2ccccc2)N1c1nc2c(Cl)cc(Cl)cc2s1 | 54.1
CCCCCCc1cc2cc(C(=O)Nc3ccccc3)c(=N)oc2cc1O | > 100
Cc1nn(-c2ccccc2)c2c1C(c1ccc(Cl)cc1)NC(=S)N2 (stereo not given) | 48.7
CCOC1OC(=O)c2cc3ccc4c(c3c(-c3ccc5c(c3)OCO5)c21)OCO4 (stereo not given) | > 100
Cn1c(=O)n(C2(C)C[Se]C2)c2ccccc21 | > 100
COC(=O)C(Cc1nc2ccc(Cl)cc2[nH]c1=O)/C(=N\N)C(=O)Nc1cc(C)c(Cl)cc1S(=O)(=O)O (stereo not given) | > 100

test system: SNB-19 CNS; experiment: NCI tumour cell line growth inhibition, 48 h

SMILES | TGI [µM]
O=C1/C(=C/c2ccccc2S)N=C(c2ccccc2)N1c1nc2c(Cl)cc(Cl)cc2s1 | 84.5
CCCCCCc1cc2cc(C(=O)Nc3ccccc3)c(=N)oc2cc1O | > 73.8
Cc1nn(-c2ccccc2)c2c1C(c1ccc(Cl)cc1)NC(=S)N2 (stereo not given) | > 100
CCOC1OC(=O)c2cc3ccc4c(c3c(-c3ccc5c(c3)OCO5)c21)OCO4 (stereo not given) | > 100
CN=C1CC2c3cc(OC)c(OC)cc3CCN2C2=C1C(=O)CC(C)(C)C2 (stereo not given) | > 100
Cn1c(=O)n(C2(C)C[Se]C2)c2ccccc21 | > 100
COC(=O)C(Cc1nc2ccc(Cl)cc2[nH]c1=O)/C(=N\N)C(=O)Nc1cc(C)c(Cl)cc1S(=O)(=O)O (stereo not given) | > 100

test system: HT29 colon; experiment: NCI tumour cell line growth inhibition, 48 h

SMILES | TGI [µM]
O=C1/C(=C/c2ccccc2S)N=C(c2ccccc2)N1c1nc2c(Cl)cc(Cl)cc2s1 | 40.1
CCCCCCc1cc2cc(C(=O)Nc3ccccc3)c(=N)oc2cc1O | > 32.1
Cc1nn(-c2ccccc2)c2c1C(c1ccc(Cl)cc1)NC(=S)N2 (stereo not given) | > 100
CCOC1OC(=O)c2cc3ccc4c(c3c(-c3ccc5c(c3)OCO5)c21)OCO4 (stereo not given) | > 100
CN=C1CC2c3cc(OC)c(OC)cc3CCN2C2=C1C(=O)CC(C)(C)C2 (stereo not given) | > 100
Cn1c(=O)n(C2(C)C[Se]C2)c2ccccc21 | > 100
COC(=O)C(Cc1nc2ccc(Cl)cc2[nH]c1=O)/C(=N\N)C(=O)Nc1cc(C)c(Cl)cc1S(=O)(=O)O (stereo not given) | > 100

test system: ACHN renal; experiment: NCI tumour cell line growth inhibition, 48 h

SMILES | TGI [µM]
O=C1/C(=C/c2ccccc2S)N=C(c2ccccc2)N1c1nc2c(Cl)cc(Cl)cc2s1 | 58
CCCCCCc1cc2cc(C(=O)Nc3ccccc3)c(=N)oc2cc1O | > 100
Cc1nn(-c2ccccc2)c2c1C(c1ccc(Cl)cc1)NC(=S)N2 (stereo not given) | 38.4
CCOC1OC(=O)c2cc3ccc4c(c3c(-c3ccc5c(c3)OCO5)c21)OCO4 (stereo not given) | > 100
CN=C1CC2c3cc(OC)c(OC)cc3CCN2C2=C1C(=O)CC(C)(C)C2 (stereo not given) | > 100
Cn1c(=O)n(C2(C)C[Se]C2)c2ccccc21 | > 100
COC(=O)C(Cc1nc2ccc(Cl)cc2[nH]c1=O)/C(=N\N)C(=O)Nc1cc(C)c(Cl)cc1S(=O)(=O)O (stereo not given) | > 100
